# In ChEMBL document CHEMBL1201862, “PubChem BioAssay data set” (2004):
#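 How tested: cells in 96-well plates exposed to compound for 48 hours at five concentrations. Abbreviation: GI50, concentration required for 50% inhibition of growth.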 The source made the active and inactive calls. No stated cut-off is given here; in the data, active = GI50 up to about 1.1 µM and inactive = higher.
# Assays:
# Experiment in all cases: growth of human tumour cells (NCI), 48 h
# TK-10 = tested on: TK-10
# SW-620 = tested on: SW-620
# OVCAR-3 = tested on: OVCAR-3
# MOLT-4 = tested on: MOLT-4
# NCI-H226 = tested on: NCI-H226
# IGROV-1 = tested on: IGROV-1
# SNB-75 = tested on: SNB-75
# UACC-257 = tested on: UACC-257
# CAKI-1 = tested on: CAKI-1
# A498 = tested on: A498
# KM12 = tested on: KM12
# M14 = tested on: M14
# LOX IMVI = tested on: LOX IMVI
# HOP-92 = tested on: HOP-92
# U-251 = tested on: U-251
# SK-OV-3 = tested on: SK-OV-3
# OVCAR-8 = tested on: OVCAR-8
# HCT-15 = tested on: HCT-15
# MDA-MB-435 = tested on: MDA-MB-435
Compound,GI50 (TK-10),GI50 (SW-620),GI50 (OVCAR-3),GI50 (MOLT-4),GI50 (NCI-H226),GI50 (IGROV-1),GI50 (SNB-75),GI50 (UACC-257),GI50 (CAKI-1),GI50 (A498),GI50 (KM12),GI50 (M14),GI50 (LOX IMVI),GI50 (HOP-92),GI50 (U-251),GI50 (SK-OV-3),GI50 (OVCAR-8),GI50 (HCT-15) [µM],GI50 (MDA-MB-435)
Oc1ncnc2c1sc(=S)n2-c1ccccc1,> 100 µM (inactive),> 100 µM (inactive),> 100 µM (inactive),> 100 µM (inactive),> 100 µM (inactive),> 100 µM (inactive),> 100 µM (inactive),> 100 µM (inactive),> 100 µM (inactive),94.8 µM (inactive),> 100 µM (inactive),> 100 µM (inactive),> 100 µM (inactive),70.3 µM (inactive),> 100 µM (inactive),> 100 µM (inactive),> 100 µM (inactive),> 100,–
CC1c2[nH]c3ccccc3c2CCN1O (configuration not stated),> 100 µM (inactive),> 100 µM (inactive),> 100 µM (inactive),> 100 µM (inactive),23.1 µM (inactive),> 100 µM (inactive),68.5 µM (inactive),> 100 µM (inactive),> 100 µM (inactive),> 100 µM (inactive),> 100 µM (inactive),> 100 µM (inactive),> 100 µM (inactive),> 100 µM (inactive),> 100 µM (inactive),> 100 µM (inactive),> 100 µM (inactive),> 100,–
C[C@]12CCC3c4ccc(O)cc4CC[C@H]3C1CC(=O)N(N)C2=O (some centres not stated),> 100 µM (inactive),> 100 µM (inactive),> 100 µM (inactive),> 100 µM (inactive),> 100 µM (inactive),> 100 µM (inactive),> 100 µM (inactive),> 100 µM (inactive),> 100 µM (inactive),> 100 µM (inactive),> 100 µM (inactive),> 100 µM (inactive),–,> 100 µM (inactive),> 100 µM (inactive),> 100 µM (inactive),> 100 µM (inactive),–,> 100 µM (inactive)
COC(=O)[C@H](C)[C@H]1CC[C@@](C)([C@H]2CC3C(C)(C)[C@H]4CCC(C)=C[C@H]4C[C@@]3(C)O2)OO1 (some centres not stated),15.3 µM (inactive),8.83 µM (inactive),13.2 µM (inactive),7.13 µM (inactive),14.7 µM (inactive),5.69 µM (inactive),6.14 µM (inactive),12.1 µM (inactive),5.13 µM (inactive),8.71 µM (inactive),11.7 µM (inactive),12.6 µM (inactive),1.6 µM (inactive),2.86 µM (inactive),13 µM (inactive),30.5 µM (inactive),10.7 µM (inactive),10.5,–
C=C1CCC2C(C)(CO)C(O)CCC2(C)C1C/C=C1/CCOC1=O (configuration not stated),> 100 µM (inactive),> 100 µM (inactive),> 100 µM (inactive),> 100 µM (inactive),> 100 µM (inactive),> 100 µM (inactive),> 100 µM (inactive),> 100 µM (inactive),> 100 µM (inactive),> 100 µM (inactive),> 100 µM (inactive),> 100 µM (inactive),> 100 µM (inactive),> 100 µM (inactive),> 100 µM (inactive),> 100 µM (inactive),> 100 µM (inactive),> 100,–
COC(=O)C1Cc2c(n(C)c3ccccc23)C(c2ccccc2)N1 (configuration not stated),> 100 µM (inactive),> 100 µM (inactive),53 µM (inactive),29.6 µM (inactive),22.6 µM (inactive),45.8 µM (inactive),> 100 µM (inactive),15.2 µM (inactive),> 100 µM (inactive),48.4 µM (inactive),> 100 µM (inactive),> 100 µM (inactive),78.7 µM (inactive),> 100 µM (inactive),48 µM (inactive),> 100 µM (inactive),> 100 µM (inactive),14.2,–
CCCNc1ncnc2c1cnn2C,> 100 µM (inactive),> 100 µM (inactive),> 100 µM (inactive),> 100 µM (inactive),> 100 µM (inactive),> 100 µM (inactive),51.3 µM (inactive),> 100 µM (inactive),> 100 µM (inactive),> 100 µM (inactive),> 100 µM (inactive),> 100 µM (inactive),> 100 µM (inactive),> 100 µM (inactive),> 100 µM (inactive),> 100 µM (inactive),> 100 µM (inactive),> 100,–
Cn1cnnc1Sc1c([N+](=O)[O-])nc(-c2ccc([N+](=O)[O-])cc2)n1C,18.7 µM (inactive),16.1 µM (inactive),17 µM (inactive),14.6 µM (inactive),20.9 µM (inactive),17.5 µM (inactive),31.3 µM (inactive),16 µM (inactive),32.7 µM (inactive),> 100 µM (inactive),20.5 µM (inactive),16.4 µM (inactive),13.6 µM (inactive),19.4 µM (inactive),16.6 µM (inactive),> 100 µM (inactive),18.1 µM (inactive),–,–
COC(=O)c1c2c(cc3c1CC1(Cc4cc5c(cc4C1=O)CCC5)C3)CCC2 (configuration not stated),22.8 µM (inactive),20.8 µM (inactive),72.9 µM (inactive),5.47 µM (inactive),60.3 µM (inactive),34.3 µM (inactive),14.3 µM (inactive),17.5 µM (inactive),21 µM (inactive),34.4 µM (inactive),38.7 µM (inactive),90.4 µM (inactive),7.18 µM (inactive),–,83.9 µM (inactive),21.9 µM (inactive),27.6 µM (inactive),42.7,28.1 µM (inactive)
CCOc1ccc(/N=C\c2ccc3cc(C)ccc3n2)cc1,79.3 µM (inactive),58.9 µM (inactive),33.1 µM (inactive),27.3 µM (inactive),> 100 µM (inactive),77.6 µM (inactive),40.7 µM (inactive),76 µM (inactive),36.9 µM (inactive),72.3 µM (inactive),37.1 µM (inactive),49.1 µM (inactive),30.6 µM (inactive),66.8 µM (inactive),> 100 µM (inactive),> 100 µM (inactive),50.2 µM (inactive),41.8,–
CC(=O)C(CN(C)Cc1ccccc1)C(c1ccccc1)c1c(O)c2ccccc2oc1=O (configuration not stated),> 100 µM (inactive),> 100 µM (inactive),–,> 100 µM (inactive),10.4 µM (inactive),> 100 µM (inactive),> 100 µM (inactive),> 100 µM (inactive),> 100 µM (inactive),> 100 µM (inactive),> 100 µM (inactive),> 100 µM (inactive),> 100 µM (inactive),31.9 µM (inactive),> 100 µM (inactive),> 100 µM (inactive),> 100 µM (inactive),> 100,–
CCN(CC)[C@@H]1c2cc3c(cc2C(c2cc(OC)c(O)c(OC)c2)C2C(=O)CO[C@@H]21)OCO3 (some centres not stated),> 100 µM (inactive),> 100 µM (inactive),–,> 100 µM (inactive),> 100 µM (inactive),> 100 µM (inactive),> 100 µM (inactive),> 100 µM (inactive),> 100 µM (inactive),> 100 µM (inactive),> 100 µM (inactive),> 100 µM (inactive),> 100 µM (inactive),> 100 µM (inactive),> 100 µM (inactive),> 100 µM (inactive),> 100 µM (inactive),> 100,–
CC(=O)OC1CC2C(C)(C)OC(=O)CC(OC(C)=O)[C@]2(C)C2CCC3(C)C(=CCC3[C@H]3COC(=O)C3)[C@]12C (some centres not stated),> 100 µM (inactive),> 100 µM (inactive),94 µM (inactive),24.5 µM (inactive),> 100 µM (inactive),> 100 µM (inactive),46.6 µM (inactive),–,> 100 µM (inactive),96.4 µM (inactive),> 100 µM (inactive),32.7 µM (inactive),> 100 µM (inactive),26.1 µM (inactive),> 100 µM (inactive),> 100 µM (inactive),> 100 µM (inactive),> 100,–
CC1C[C@H](C)CC(C(O)CC2CC(=O)N(Cc3ccccc3)C(=O)C2)C1O (some centres not stated),> 100 µM (inactive),> 100 µM (inactive),> 100 µM (inactive),> 100 µM (inactive),> 100 µM (inactive),> 100 µM (inactive),> 100 µM (inactive),> 100 µM (inactive),> 100 µM (inactive),> 100 µM (inactive),48.9 µM (inactive),> 100 µM (inactive),> 100 µM (inactive),> 100 µM (inactive),> 100 µM (inactive),> 100 µM (inactive),> 100 µM (inactive),–,–
O=C(O)CN(c1ccccc1)S(=O)(=O)c1cccc([N+](=O)[O-])c1,> 100 µM (inactive),> 100 µM (inactive),> 100 µM (inactive),> 100 µM (inactive),> 100 µM (inactive),> 100 µM (inactive),> 100 µM (inactive),> 100 µM (inactive),> 100 µM (inactive),> 100 µM (inactive),> 100 µM (inactive),> 100 µM (inactive),> 100 µM (inactive),> 100 µM (inactive),> 100 µM (inactive),> 100 µM (inactive),> 100 µM (inactive),> 100,–
C=C1CC[C@@H]2C(C)(C)CCC[C@@]2(C)[C@@H]1Cc1cc(O)ccc1O,3.17 µM (inactive),8.43 µM (inactive),5.31 µM (inactive),0.912 µM (active),2.55 µM (inactive),2.13 µM (inactive),1.95 µM (inactive),1.93 µM (inactive),8.26 µM (inactive),13.7 µM (inactive),6.18 µM (inactive),11.8 µM (inactive),2.16 µM (inactive),2.79 µM (inactive),3.72 µM (inactive),2.3 µM (inactive),3.88 µM (inactive),3.09,–
